Values of other authors as cited in patent US20050065732A1, “Matrix methods for quantitatively analyzing and assessing the properties of botanical samples” (priority 2001, published 2005).

How the values were obtained:
[1] = test system: human umbilical vein endothelial cells (HUVECs)

urokinase-type plasminogen activator antigen synthesis (HUVECs) | Compound | PAI-1 antigen synthesis (HUVECs) | TPA mRNA (HUVECs) | TPA synthesis (HUVECs) | expression of PAI-1-specific mRNA (HUVECs) | plasminogen activator inhibitor type I (PAI-1) specific mRNA expression [1] | tissue-type plasminogen activator (t-PA) specific mRNA [1]
did not change | CC(C)=CCC[C@](C)(O[C@@H]1O[C@H](CO)[C@@H](O)[C@H](O)[C@H]1O)[C@H]1CC[C@]2(C)[C@@H]1[C@H](O)C[C@@H]1[C@@]3(C)CC[C@H](O)C(C)(C)[C@@H]3[C@@H](O[C@@H]3O[C@H](CO)[C@@H](O)[C@H](O)[C@H]3O[C@@H]3OC[C@@H](O)[C@H](O)[C@H]3O)C[C@]12C [NR1, notoginsenoside R1] | did not change | increased as much as twofold | dose- and time-dependent increase | not significantly affected | – | –
– | CC(C)(O)[C@@H]1CC[C@](C)([C@H]2[C@@H](O)C[C@@]3(C)[C@@H]4C[C@H](O[C@@H]5O[C@H](CO)[C@@H](O)[C@H](O)[C@H]5O)[C@H]5C(C)(C)[C@@H](O[C@@H]6OC[C@@H](O)[C@H](O)[C@H]6O)CC[C@@]56C[C@@]46CC[C@]23C)O1 [astragaloside IV] | – | – | – | – | decreased | increased
